Assay results as given in patent US8241607B2, “Use of fructose-based compounds for the diagnosis of cancer” (priority 2005, dated 2012).

Legend:
[1] = Serum fructose in normal volunteers after two cans of soda (fructose dehydrogenase assay); format: in vivo, human; details: 3 normal volunteers
Method: FIG. 37 depicts fasting serum fructose and glucose levels in patients with pancreatic cancer and in normal volunteers in accordance with an embodiment of the present invention. (a) Fasting serum fructose and glucose levels in 6 patients with pancreatic cancer on the morning of resection. (b) Serum fructose, and glucose levels (Mean±SEM) in 3 normal volunteers after a 10 h fast, followed by ingestion of two cans of soda, containing 76 g of carbohydrate in the form of high fructose corn syrup (55% fructose, 45% glucose).
The normal circulating concentrations of fructose are unknown. […] Briefly, aliquots (20 μl) of fructose standards (0.1, 0.5, 1, 2, 4, 6, and 8 mM) or unknown serum samples were mixed with 5 μl of a stock solution (125 U/ml) of the enzyme fructose dehydrogenase (Sigma) in 175 μl citric acid (0.05 M) phosphate (0.09 M) buffer (pH 4.5), and 20 μl of 3-(4,5-dimethylthiazol-2yl)-2,5-diphenyltetrazolium bromide (MTT), and phenazine methosulfate (Promega), incubated for 30 minutes, after which absorbance at 570 nm was recorded in a 96-well spectrophotometer. […] As the first analysis, in accordance with institutional review board guidelines, the inventors obtained 32 serum samples randomly selected from anonymous inpatients at Cedars-Sinai Medical Center. The inventors also measured glucose in these same samples using standard glucose oxidase based methods. […]

PANC-1 cells = assay: [1,2-13C2] stable isotope-based dynamic metabolic profiling in PANC-1 cells; format: cell-based; details: 72 h
Method: FIG. 28 depicts the metabolism of fructose and glucose in pancreatic cancer cells in accordance with an embodiment of the present invention. Lactate generation from glycolysis (a), and hexose oxidation in the pentose and tricarboxylic acid cycles (b) following treatment of PANC-1 cells with 2 mM glucose, 5.5 mM glucose, and 5.5 mM fructose for 72 h. […] In (b), the ^13C to ^12C ratio in the CO2 released from the PANC-1 cells is presented.
FIG. 29 depicts fatty acid synthesis from glucose versus fructose in accordance with an embodiment of the present invention. Fatty acid synthesis represented by (a), ^13C-labelled oleate, (b) ^13C-labelled arachidic acid, and (c) ^13C-labelled 24-carbon fatty acid fraction following treatment of PANC-1 cells with 2 mM, and 5.5 mM glucose, and 5.5 mM fructose for 72 h. For the fatty acids, the fraction of ^13C-labeled oleate, arachidic acid or 24-carbon fatty acid is expressed as percentage of total oleate, arachidic acid or 24-carbon fatty acids, respectively.
FIG. 30 depicts ribose and deoxyribose synthesis following glucose and fructose treatment in accordance with an embodiment of the present invention.
Metabolism comprises anabolic (converting small molecules into big ones) and catabolic processes (converting food into useful energy), predicts the functional state of a cell, and analyzes the levels of the end products (metabolites) of anabolism and catabolism. Metabolic profiling using stable isotope tracer technology ([1,2-^13C] sugars) allows the measurement of the changing pattern of distribution of ^13C carbons from [1,2-^13C] glucose in intracellular metabolic intermediates, and provides a simultaneous measure of carbon flow toward the pentose cycle, glycolysis, direct glucose oxidation, tricarboxylic acid (TCA) cycle and fatty acid synthesis (76,77). […] The inventors employed [1,2-^13C2] glucose, or [1,2-^13C2] fructose stable isotope-based dynamic metabolic profiling (SiDMAP, Los Angeles, US) to track and quantify changes in glucose, and fructose carbon re-distribution among major metabolic pathways in pancreatic cancer cells (Lee W N, Boros L G, Puigjaner J, Bassilian S, Lim S, Cascante M. Mass istopomer study of transketolase-transaldolase pathways of the pentose cycle with [1,2-^13C2]glucose. Am J Physiol 274:E843-51, 1998; Lee W N, Byerley L O, Bassilian S, Ajie H O, Clark I, Edmond J. Isotopomer study of lipogenesis in human hepatoma cells in culture: contribution of carbon and hydrogen atoms from glucose. Anal Biochem 226: 100-112). The principles of this methodology are outlined below in a series of schematics (FIGS. 25-27) illustrating how this technique tracked carbohydrate metabolism and the data generated. […]

Compound: O=C(CO)[C@@H](O)[C@H](O)[C@H](O)CO [fructose]
- mean serum fructose levels, peak ([1]; 30 minutes after two sodas): 17 mM
- serum fructose levels ([1]; for the 2 hour duration of blood sampling): greater than 5 mM
- route of metabolism in the pentose phosphate shunt (PANC-1 cells; 5.5 mM 13C-labeled sugar): preferentially metabolized by TKK
- fraction metabolized for fatty acid synthesis (FAS) (PANC-1 cells; 13C-labeled fructose vs glucose): comparatively less
- CO2 production, fructose in comparison to glucose (PANC-1 cells; 13C-labeled sugar): 34 fold lower
- lactate production, fructose in comparison to glucose (PANC-1 cells; 13C-labeled sugar): 34 fold lower
